In US6838237B2, “Antigenically reactive regions of the hepatitis a virus polyprotein” (The United States of America as represented by the …, priority 1996, dated 2005):

What was measured:
anti-HAV-negative sera = test: EIA for anti-HAV: synthetic peptides reacted with anti-HAV-negative sera; assay type: binding, human; conditions: experiment 1: sera 1:100, cutoff P/N 3.0
Procedure, shortened: (§1)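 Peptides at 10 mg/ml in 0.1 M PBS pH 7.5 adsorbed to wells 12 h at room temperature; sera diluted in PBS-Tween with 10% goat serum, incubated 60 min at 37 °C. Readout OD493 as P/N ratio, cutoff 3.0 (negative mean plus ≥3.5 SD).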

anti-HAV-positive sera = test: EIA for anti-HAV: synthetic peptides adsorbed to wells, reacted with anti-HAV-positive acute sera; assay type: binding, human; conditions: for Reactivity with acute sera (reactive/tested): experiment 1: sera 1:100, anti-human IgG-HRP, cutoff P/N 3.0; for Reactivity with acute sera (percent of sera reactive): experiment 1: sera 1:100, cutoff P/N 3.0; for P/N for acute sera (mean) / P/N for acute sera (range, in parentheses): experiment 1, OD493 positive/negative ratio of reactive sera
Procedure, shortened: as §1

Sequence	Reactivity with negative sera (reactive/tested) (anti-HAV-negative sera)	Reactivity with acute sera (reactive/tested) (anti-HAV-positive sera)	Reactivity with acute sera (percent of sera reactive) (anti-HAV-positive sera)	P/N for acute sera (mean) (anti-HAV-positive sera)	P/N for acute sera (range, in parentheses) (anti-HAV-positive sera)	immunoreactivity with anti-HAV-positive sera (in words) (anti-HAV-positive sera)	mean P/N ratio with anti-HAV-positive sera (anti-HAV-positive sera)	percent of (IgM) anti-HAV-positive sera immunoreactive with peptide (anti-HAV-positive sera)
SQGISDDDNDSAVAEFFQSF [YK-1368]	1/27	26/41	63.4%	9.58	(4.27-19.82)	–	–	–
SVTEQSEFYFPRAPLNSNAM [YK-1308]	0/51	1/48	2.1%	3.32	–	–	–	–
TKPVASDYWDGYSGQLVCII [YK-1352]	0/51	8/48	16.7%	4.45	(3.38-5.81)	–	–	–
TPVGLAVDTPWVEKESALSI [YK-1290]	1/51	6/48	12.5%	4.48	(3.0-6.44)	–	–	–
TTVSTEQNVPDPQVGITTMK [YK-1265]	0/46	9/41	22.0%	6.7	(3.23-9.57)	–	–	–
VAKLVTQEMFQNIDKKIESQ [YK-1393]	1/27	24/41	58.5%	10.15	(4.64-16.36)	very broad and strong antigenic reactivity	10.15	58.5%
VASHVRVNVYLSAINLECFA [YK-1261]	1/46	16/41	39.0%	5.27	(3.72-7.9)	broadly and strongly immunoreactive	–	–
VDDPRSEEDKRFESHIECRK [YK-1314]	1/51	26/48	54.2%	14.68	(3.53-89.96)	broad and strong antigenic reactivity	–	–
VIQQLNQDEHSHIIGLLRVM [YK-1334]	2/51	5/48	10.4%	4.27	(3.16-5.27)	marginally immunoreactive	–	–
VKEAIDRRLHFKVEVKPASF [YK-1361]	0/46	5/41	12.2%	4.12	(3.21-6.28)	–	–	–
VKPASFFKNPHNDMLNVNLA [YK-1362]	0/41	6/41	14.6%	7.82	(3.4-18.05)	–	–	–
VLPPPRKMKGLFSQAKISLF [YK-1318]	0/51	15/48	31.3%	5.94	(3.4-8.68)	–	–	–
VMTVEIRKQNMTEFMELWSQ [YK-1367]	1/41	9/41	22.0%	7.82	(4.18-16.26)	–	–	22.0%
VSGCPMRLNMASLEEKGRHF [YK-1356]	0/51	8/48	16.7%	5.49	(3.36-10.96)	–	–	–
WQRSNAEFEQNLENAQWFAF [YK-1436]	1/27	4/41	9.8%	4.49	(3.35-5.89)	–	–	–
